Patent US20120295804A1, “Compositions and Methods for Diagnosis and Treatment of Breast Cancer” (University of Medicine and Dentistry of New Jersey, priority 2011, published 2012)

How the values were obtained:
[1] = tested on: GJIC between Oct4^hi BCCs and BM stroma; test: GJIC in co-cultures of Oct4^hi BCCs and bone marrow stroma with or without 1-octanol; assay type: cell-based; details: 300 μM 1-octanol
Description: Connexin (Cx) expression was studied using plasma membrane extracts from unsorted, Oct4^hi, Oct4^med and Oct4^− BCCs. […] It was next determined if the higher expression of connexins in BCCs could provide the cells with an advantage to form GJIC, in co-cultures of Oct4^hi BCCs and BM stroma. […] As expected, in the presence of the GJIC inhibitor 1-octanol, the intensity of Cx43 was reduced. GJIC was studied via dye transfer between BCCs and stroma using CFDA-SE-labeled Oct4^hi BCCs, as described previously (Lim, P. K. et al. 2011. Cancer Res. 71:1550-1560). Dye transfer into stroma was blunted by 1-octanol. Finally, the total number of BCCs showing dye transfer was counted in order to quantify functional GJIC.
GJIC was assessed by CFDA-SE dye exchange from BCCs to stroma in co-cultures, as described previously (Ramkisson, S. H. et al. 2007. Cancer Res. 67:1653-1659). Briefly, BCCs and stroma were co-cultured at equal ratios in α-MEM with 10% FCS, in the presence or absence of 300 μM 1-octanol. CFDA-SE dye transfer was assessed on an EVOS fl fluorescence imager (AMG Micro, Bothell, Wash.).

Oct4^− BCCs = test: Chemical induction of GFP in Oct4(−) breast cancer cells stably transfected with pEGFP1-Oct3/4; assay type: cell-based; details: 2.7 μM BIX01294, 24 h, pEGFP1-Oct3/4 stable transfectants
Description: Therefore, different BCC subsets were selected based on Oct4 expression. To do this, MDA-MB-231 and T47D were stably transfected with an Oct4 reporter vector, pEGFP1-Oct3/4 (Gerrard, L. et al. 2005. Stem Cells 23:124-133). The transfected cells were sorted into three subsets based on GFP expression levels. The top 5% of GFP expressers were designated Oct4^hi and the lowest 5%, Oct4^−. The population between the extremes were designated Oct4^med. GFP intensities were validated for correlation with Oct4 protein by intracellular flow cytometry of pEGFP1-Oct3/4 transfectants. The Oct4^− population was similar to isotype control. In contrast, the mean fluorescence intensity (MFI) of cells labeled with APC-anti-Oct4 correlated with GFP intensities.
At 40-50% confluence stably transfected BCCs were treated with G9a histone methyltransferase inhibitor, [2-(Hexahydro-4-methyl-1H-1,4-diazepin-1-yl)-6,7-dimethoxy-N-[1-(phenylmethyl)-4-piperidinyl]4-quinazolinamine] (BIX01294, Enzo Life Sciences, Farmingdale, N.Y.). BIX01294 and similar chemicals can induce Oct4 in negative cells, in reprogramming (Huangfu, D. et al. 2008. Nat. Biotech. 26:795-797; Shi, Y. et al. 2008. Cell Stem Cell 3:568-574). Cells were treated with 2.7 μM BIX01294. After 24 h, images were taken by fluorescence microscopy. Control cells were untreated or treated with vehicle (dimethyl sulphoxide, DMSO).

unsorted BCCs = test: Carboplatin response of subcutaneous tumors from unsorted BCCs; assay type: in vivo, nude BALB/c mice; details: 50 mg/kg i.p. twice at 3-day intervals
Method: (§1) Both triple-negative MDA-MB-231 and triple-positive T47D are expected to respond to carboplatin treatment, a drug which acts through a mechanism independent of hormone receptor status. Thus, the responsiveness to carboplatin was investigated in Oct4^hi cells from both cells lines. Tumors were injected into the dorsal flanks of mice as before. When the tumors were 0.5 cm^3 the mice were injected with carboplatin intra-peritoneally (i.p.).
(§2) Serial passage of different BCC subsets was performed by injecting BCCs in dorsal flanks of mice. The cells were resuspended in PBS and then mixed with matrigel at 1:1 ratio in 0.2 mL total volume. The cells were injected at different numbers, but in a constant volume to study dose effects on the time for tumor growth. Parallel analyses were performed with unsorted BCCs. Tumors were monitored daily for 30 days and measured in two dimensions with a caliper and volume was calculated using the following: formula V=πr^2h, where r=radius and h=height. Subsequent passages occurred by sorting the same cell subset (top 5% highest GFP) and then repeating the injection as above.
(§3) Carboplatin responses to tumor growth were assessed by subcutaneous injection of 200 Oct4^hi BCCs in matrigel in the dorsal flank. For unsorted BCCs, 10^6 cells were injected. […] Tumor sizes were recorded every 2 days with a caliper, as described for serial passage.

Oct4^hi BCCs = test: Carboplatin response of subcutaneous tumors from Oct4^hi BCCs; assay type: in vivo, nude BALB/c mice; details: 50 mg/kg i.p. twice at 3-day intervals, same tumor size as unsorted BCCs
Method: as §1, §2, §3

Oct4^hi MDA-MB-231 = test: Carboplatin resistance of Oct4^hi BCCs in bone marrow (femur endosteum); assay type: in vivo, mice; details: 10^3 Oct4^hi MDA-MB-231 i.v.; carboplatin 50 mg/kg i.p. at 3-day intervals; femurs examined one week after second injection
Method: It was then determined if Oct4^hi BCCs, at sites of distant metastasis, such as bone marrow, could resist carboplatin treatment. Bone marrow was selected for study because it is well-established that BCCs can attain dormancy in this organ, close to the endosteum (Lim, P. K. et al. 2011. Cancer Res. 71:1550-1560; Rao, G. et al. 2004. Cancer Res. 64:2874-2881). Mice were injected intravenously with 10^3 Oct4^hi MDA-MB-231. After 1 day, carboplatin was injected i.p. at 3-day intervals. One week after the second injection, femurs were decalcified, processed, and examined for GFP^+ cells. […] Similar cells were not detected in the cellular regions of the marrow, which were flushed from femurs prior to the analyses of the endosteal regions. Mice were injected intravenously with 10^3 BCCs, stably transfected with pEGFP1-Oct3/4. After 24 hours, mice were injected i.p. with carboplatin (50 mg/kg), followed by a second dose after 3 days. One week after the final injection of carboplatin, mice were euthanized, and the femurs were removed. Femurs were rinsed and the cells flushed using a 27 gauge needle attached to a syringe with PBS to remove the cells within the central region of the cavity. After this, the femurs were fixed overnight in 4% formaldehyde at 4° C. […] Slides were examined with an EVOS fl fluorescence imager.

[2] = tested on: Oct4^hi BCCs (MDA-MB-231 and T47D); test: Hoechst 33342 dye exclusion (side population) in the presence or absence of verapamil; assay type: cell-based; details: 400 μM verapamil, 5 μg/mL Hoechst 33342, Oct4^hi population
Method: FIG. 7 depicts results of experiments of dye retention in BCC subsets. Oct4^hi BCCs were labeled with Hoechst 33342 (5 μg/mL), in the presence or absence of 400 μM verapamil. Propidium iodide-negative cells were gated based on GFP intensity. The cells were analyzed on Hoechst Blue and Hoechst Red filters. Side population cells that were Hoechst negative (circled) were compared in the two experimental conditions. The figure represents five different experiments, with MDA-MB-231 and T47D.
Experiments were then performed to determine if drug resistance genes played any role in the differentiation of BCC subsets. […] Oct4^hi cells were incubated in the presence or absence of verapamil, which inhibits multi-drug resistance transporters, and then dye exclusion was tested in four different experiments. Oct4^hi, Oct4^med and Oct4^− cells were tested. […] Only few Oct4^med (FIG. 8) and Oct4^− cells (FIG. 9) excluded the dye.
Side population analysis of the pEGFP1-Oct4 stable transfectants was performed using the LSR II (BD Biosciences). […] Optimal titrations and conditions were determined to be 5 μg/ml Hoechst 33342 (90 min incubation at 37° C.) and 400 μM verapamil (10 min pre-incubation). […] The cells between the two extremes were also analyzed (Oct4^med).

CCCCCCCCO [1-octanol] was tested, and the “CFDA-SE dye transfer into stroma” value ([1]; CFDA-SE-labeled Oct4^hi BCCs) was “blunted” and the “intensity of Cx43 immunofluorescence” value ([1]; co-cultures of Oct4^hi BCCs and BM stroma) was “reduced”.

In the case of COc1cc2nc(N3CCCN(C)CC3)nc(NC3CCN(Cc4ccccc4)CC3)c2cc1OC [BIX01294, 2-(Hexahydro-4-methyl-1H-1,4-diazepin-1-yl)-6,7-dimethoxy-N-[1-(phenylmethyl)-4-piperidinyl]4-quinazolinamine], the “Oct4^− BCCs reverted to high GFP expression” value (Oct4^− BCCs) is reported as 92.5%±4.4%.

N.N.O=C([O-])C1(C(=O)[O-])CCC1.[Pt+2] [carboplatin] was tested, and the “tumors eight days after treatment with carboplatin” value (unsorted BCCs; mice injected with unsorted BCCs) was “tumors were undetectable”, the “tumor change after the second injection of carboplatin” value (unsorted BCCs; tumors 0.5 cm^3 at start, vs Oct4^hi and untreated unsorted BCC) was “significant (p<0.05) reduction” and the “tumors after carboplatin treatment” value (Oct4^hi BCCs) was “retained palpable tumors”. For the same compound, the “GFP^+ BCCs in femur after carboplatin” value (Oct4^hi MDA-MB-231) was “drug resistance in GFP^+ BCCs close to the endosteum of bone marrow”.

For COc1ccc(CCN(C)CCCC(C#N)(c2ccc(OC)c(OC)c2)C(C)C)cc1OC (centres unmarked) [verapamil], the “difference in Hoechst dye retention with verapamil” value [2] was 3 fold.
